Results from the METLIN SMRT retention time set (Domingo-Almenara et al. 2019).

Assay: gradient 5% acetonitrile 3 min, to 50% in 2 min, to 85% in 15 min, held 3 min, 100 µL/min
Conditions: column: Zorbax Extend-C18 2.1 x 50 mm; eluents: water / acetonitrile, 0.1% formic acid
Procedure, shortened: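 Retention times come from adduct peaks that were picked computationally and then checked by hand. The standards, pure and pooled in mixtures of ~100 molecules, were run on a Zorbax Extend-C18 column (2.1 × 50 mm, 1.8 μm) at 100 μL/min with water and acetonitrile, each with 0.1% formic acid. Detection was by quadrupole time-of-flight mass spectrometry in positive and negative ionization mode, with a dead volume of 40 μL and a dwell volume of 900 μL.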

Row | SMILES | RP-LC retention time
1 | Cc1cc(Cl)ccc1NC(=O)C1CCCN1S(=O)(=O)c1cc2c(cc1C)NC(=O)CO2 (stereo not given) | 832 s
2 | CCc1ccc(NC(=O)Cn2nc(C(=O)N3CCCC3)c3ccccc32)cc1 | 917 s
3 | Cc1ccccc1S(=O)(=O)N1CCC(n2cnnc2C(C)C)CC1 | 738 s
4 | CN1C(=O)c2cc(S(=O)(=O)NCc3ccccc3)ccc2Oc2cccnc21 | 959 s
5 | O=C1CCCC(=O)C1C(=O)c1ccc(C(F)(F)F)cc1[N+](=O)[O-] | 1070 s
6 | O=c1c2oc3ccccc3c2ncn1Cc1nc(-c2cccc(Br)c2)no1 | 1060 s
7 | O=C(Cc1ccccc1)Nc1c(-c2ccccc2)nc2ccccn12 | 574 s
8 | O=C(NCC1CCCCC1)C1CCN(c2nnc3ccccn23)CC1 | 628 s
9 | Cc1ccc2nc(NC(C)(C)CO)nc(-c3ccccc3)c2c1 | 644 s
10 | O=c1ccnc(Nc2ccc(Cl)cc2)[nH]1 | 701 s
11 | CCC(C)NC(=O)c1c(C)sc2ccn(Cc3ccc(F)cc3)c(=O)c12 (stereo not given) | 929 s
12 | Cn1c(=O)c(N2CCC(C(=O)NCCc3c[nH]c4ccc(Cl)cc34)CC2)nc2ccccc21 | 892 s
13 | Cc1ccc(NC(=O)C2CCN(S(=O)(=O)c3ccc4[nH]c(=O)sc4c3)CC2)cc1Cl | 904 s
14 | O=C(Nc1cccc(-c2nnc3n2CCCC3)c1)c1cc(C2CC2)[nH]n1 | 590 s
15 | COCc1nncn1C1CCN(S(=O)(=O)c2ccc(C)c(Cl)c2)CC1 | 770 s
16 | CCOc1nc2ccccc2nc1N1CCCC(C(=O)Nc2ccc(Br)c(C)c2)C1 (stereo not given) | 1420 s
17 | O=C(NCCN1CCOCC1)c1ccc(-c2ccc(N3CCCCC3)nc2)cc1 | 557 s
18 | N#Cc1ccccc1NC(=O)NCC1CN(c2ccc3c(c2)OCO3)C(=O)O1 (stereo not given) | 690 s
19 | Cc1c(Cl)cccc1Nc1c(-c2ccc(Br)cc2)nc2cnccn12 | 1160 s
20 | CCc1nnc2ccc(-c3noc(CNC(=O)c4ccccc4)n3)cn12 | 651 s
21 | CCOC(=O)C1=C(CN2CCCCC2)NC(=O)NC1c1cccs1 (stereo not given) | 545 s
22 | Cc1ccccc1Cn1nc2ccc(S(=O)(=O)N3CCOCC3)cn2c1=O | 818 s
23 | CCOC(=O)C1CCC(CNC(=O)N2CCN(Cc3nc4cc(C)ccc4o3)CC2)CC1 (stereo not given) | 735 s

Row | SMILES | RP-LC retention time
24 | Cc1ccc(Cn2c(=O)c3nn(C)cc3n3c(=O)n(Cc4ccc(F)cc4)nc23)cc1 | 947 s
25 | Cc1cc(C)cc(NC(=O)c2cc3sccc3n2C)c1 | 1090 s
26 | O=C(O)c1cnc(N2CCCCC2)nc1-c1ccccc1 | 956 s
27 | CCOC(=O)C1=C(N)Oc2c(oc(CO)cc2=O)C1c1cccnc1 (stereo not given) | 612 s
28 | Cc1ccc2c(c1)N(C(=O)Cn1ccn3nc(-c4ccccc4)c(CO)c3c1=O)CCO2 | 908 s
29 | COc1cccc(-c2nc(NCC3CCCO3)ncc2C(=O)O)c1 (stereo not given) | 712 s
30 | Cc1nc(N2CCN(c3ccccn3)CC2)nc2c1C(=O)CC(c1cccs1)C2 (stereo not given) | 732 s
31 | CC(C)c1ccc(CNC(=O)CN2CCN(Cc3ccc(F)cc3)C2=O)cc1 | 933 s
32 | CCCNC(=O)N1CCCN(C2=NS(=O)(=O)C(c3ccccc3)=C2C)CC1 | 735 s
33 | O=C(O)c1cn(Cc2cccc(F)c2)c(=O)c2ccccc12 | 822 s
34 | CC(C)NC(=O)c1ccc(OCC2CCN(C(=O)C3(c4ccccc4)CC3)CC2)cc1 | 897 s
35 | N#Cc1ccc(NS(=O)(=O)c2c[nH]c3ncccc23)cc1 | 686 s
36 | CC(=O)Nc1ccc(-n2cnc(C(=O)NC(C)c3ccc(F)cc3)c2)nc1 (stereo not given) | 701 s
37 | Cc1nc(-c2cccnc2)nc2c1CC(=O)N2C(C)C | 654 s
38 | CN1C(=O)CO[C@@H](C(=O)Nc2cccc(F)c2)[C@@H]1c1ccccc1 | 782 s
39 | COc1ccc(CC(=O)N2CCN(S(=O)(=O)c3cc4c5c(c3)CCC(=O)N5CCC4)CC2)cc1 | 786 s
40 | Nc1nnc(SCc2nnc(-c3ccc4c(c3)OCO4)o2)s1 | 630 s
41 | COc1cc2nc(SCC(=O)Nc3cc(C)[nH]n3)n3nc(C)nc3c2cc1OC | 605 s
42 | O=C(NCc1cccs1)C1CCN(S(=O)(=O)c2cc(C(=O)N3CCOCC3)cs2)CC1 | 803 s
43 | O=C(NCc1ccccc1F)c1cc(=O)n2c(nc3ccccc32)s1 | 876 s
44 | Cn1c(=O)c(N2CCC(NC(=O)Nc3ccccc3)CC2)nc2ccccc21 | 829 s
45 | NC(=O)c1nccn1Cc1ccccc1 | 645 s
